Laboratory results as given in US8501755B2, “Tetrahydropyridothienopyrimidine compounds and methods of use thereof” (Bayer Intellectual Property GmbH, priority 2006, dated 2013).

Columns and labels:
Format in all cases: cell-based
A431 cells = test: In vitro tumor cell proliferation assay (Cell Titer-Glo) in A431 cells; conditions: Homo sapiens, A-431, 72 h, A431 human epidermoid carcinoma overexpressing HER1; 72 hours exposure; read-out: IC50, activities in A431 cell lines
Text: (§1) The tumor cell proliferation assay used to test the compounds of the present invention involves a readout called Cell Titer-Glow® Luminescent Cell Viability Assay developed by Promega® (Cunningham, BA “A Growing Issue: Cell Proliferation Assays, Modern kits ease quantification of cell growth” The Scientist 2001, 15(13), 26, and Crouch, S P et al., “The use of ATP bioluminescence as a measure of cell proliferation and cytotoxicity” Journal of Immunological Methods 1993, 160, 81-88), that measures inhibition of cell proliferation. Generation of a luminescent signal corresponds to the amount of ATP present, which is directly proportional to the number of metabolically active (proliferating) cells. A431 cells [human epidermoid carcinoma, ATCC # HTB-20, overexpressing HER1 (EGFR, ErbB1)] and N87 [human gastric carcinoma, ATCC # CRL-1555, overexpressing HER2 (ErbB2) and HER1 (EGFR, ErbB1)] were plated at a density of 2.5×10^3 cells/well in 96 well black-clear bottom tissue culture plates in RPMI media with 10% Fetal Bovine Serum and incubated at 37° C. Twenty-four hours later, test compounds are added at a final concentration range from as high 100 μm to as low […] depend on the activities of the tested compounds in serial dilutions at a final DMSO concentration of 0.1%. Cells were incubated for 72 hours at 37° C. in complete growth media after addition of the test compound. After 72 hours of drug exposure, the plates were equilibrated to room temperature for approximately 30 min. Then, using a Promega Cell Titer Glo Luminescent® assay kit, lysis buffer containing 100 microliters of the enzyme luciferase and its substrate, luciferin mixture, was added to each well. The plates were mixed for 2 min on orbital shaker to ensure cell lysis and incubated for 10 min at room temperature to stabilize luminescence signal. The samples were read on VICTOR2 using Luminescence protocol, and analyzed with Analyze5 software to generate IC50 values.

N87 = test: In vitro tumor cell proliferation assay (Cell Titer-Glo) in N87 cells; conditions: N87 human gastric carcinoma overexpressing HER2 and HER1; 72 hours exposure; read-out: IC50, activities in N87 cell lines
Text: as §1

H1975 cells = test: In vitro tumor cell proliferation assay (Cell Titer-Glo) in H1975 cells; conditions: NCI-H1975; H1975 human NSCLC expressing mutant HER1 (L858R,T790M); 72 hours exposure; read-out: IC50, activities in H 1975 cell lines
Text: The tumor cell proliferation assay used to test the compounds of the present invention involves a readout called Cell Titer-Glow® Luminescent Cell Viability Assay developed by Promega® (Cunningham, BA “A Growing Issue: Cell Proliferation Assays, Modern kits ease quantification of cell growth” The Scientist 2001, 15(13), 26, and Crouch, S P et al., “The use of ATP bioluminescence as a measure of cell proliferation and cytotoxicity” Journal of Immunological Methods 1993, 160, 81-88), that measures inhibition of cell proliferation. Generation of a luminescent signal corresponds to the amount of ATP present, which is directly proportional to the number of metabolically active (proliferating) cells.
H1975 cells [human non small cell lung carcinoma, ATCC # CRL-5908, expressing mutant HER1 [(EGFR, ErbB1)(L858R,T790M] were plated at a density of 3×10^3 cells/well in 96 well black-clear bottom tissue culture plates in RPMI media with 10% Fetal Bovine Serum and incubated at 37° C. Twenty-four hours later, test compounds are added at a final concentration range from as high 10 uM to as low 64 pM depending on the activities of the tested compounds in serial dilutions at a final DMSO concentration of 0.1%. Cells were incubated for 72 hours at 37° C. in complete growth media after addition of the test compound. After 72 hours of drug exposure, the plates were equilibrated to room temperature for approximately 30 min. Then, using a Promega Cell Titer Glo Luminescent® assay kit, lysis buffer containing 100 microliters of the enzyme luciferase and its substrate, luciferin mixture, was added to each well. The plates were mixed for 2 min on orbital shaker to ensure cell lysis and incubated for 10 min at room temperature to stabilize luminescence signal. The samples were read on VICTOR2 using Luminescence protocol, and analyzed with Analyze5 software to generate IC50 values.

| SMILES | IC50 (A431 cells) | IC50 (N87) | IC50 (H1975 cells) |
| --- | --- | --- | --- |
| O=C(/C=C/CN1CCSC1)N1CCc2c(sc3ncnc(Nc4ccc(F)c(Cl)c4)c23)C1 [Example 35, N-(3-chloro-4-fluorophenyl)-7-[(2E)-4-(1,3-thiazolidin-3-yl)but-2-enoyl]-5,6,7,8-tetrahydropyrido [4′3′:4,5]thieno[2,3-d]pyrimidin-4-amine] | 1000 to 10000 nM | 200 to 5000 nM | 1000 to 10000 nM |
| CCN(C/C=C/C(=O)N1CCc2c(sc3ncnc(Nc4ccc(F)c(Cl)c4)c23)C1)C(C)C [Example 37, N-(3-chloro-4-fluorophenyl)-7-{(2E)-4-[ethyl(isopropyl)amino]but-2-enoyl}-5,6,7,8-tetrahydropyrido [4′3′:4,5]thieno[2,3-d]pyrimidin-4-amine] | 1000 to 10000 nM | < 200 nM | 1000 to 10000 nM |
| O=C(/C=C/CN1CCc2ccccc21)N1CCc2c(sc3ncnc(Nc4ccc(F)c(Cl)c4)c23)C1 [Example 38, N-(3-chloro-4-fluorophenyl)-7-[(2E)-4-(2,3-dihydro-1H-indol-1-yl)but-2-enoyl]-5,6,7,8-tetrahydropyrido [4′3′:4,5]thieno[2,3-d]pyrimidin-4-amine] | 1000 to 10000 nM | 200 to 5000 nM | 1000 to 10000 nM |
| CC(O)CN(C/C=C/C(=O)N1CCc2c(sc3ncnc(Nc4ccc(F)c(Cl)c4)c23)C1)CC(C)O (stereo not drawn) [Example 39, 1,1′-{[(2E)-4-{4-[(3-chloro-4-fluorophenyl)amino]-5,8-dihydropyrido [4′,3′:4,5]thieno[2,3-d]pyrimidin-7(6H)-yl}-4-oxobut-2-en-1-yl]imino}dipropan-2-ol] | 1000 to 10000 nM | < 200 nM | 1000 to 10000 nM |
| O=C(/C=C/CN1CCSCC1)N1CCc2c(sc3ncnc(Nc4ccc(F)c(Cl)c4)c23)C1 [Example 42, N-(3-chloro-4-fluorophenyl)-7-[(2E)-4-thiomorpholin-4-ylbut-2-enoyl]-5,6,7,8-tetrahydropyrido [4′,3′:4,5]thieno[2,3-d]pyrimidin-4-amine] | 1000 to 10000 nM | < 200 nM | 1000 to 10000 nM |
| O=C(/C=C/CN(CCO)CCO)N1CCc2c(sc3ncnc(Nc4ccc(OCc5ccccn5)c(Cl)c4)c23)C1 [Example 43, 2,2′-({(2E)-4-[4-{[3-chloro-4-(pyridin-2-ylmethoxy)phenyl]amino}-5,8-dihydropyrido [4′,3′:4,5]thieno[2,3-d]pyrimidin-7(6H)-yl]-4-oxobut-2-en-1-yl}imino)diethanol] | 1000 to 10000 nM | < 200 nM | 1000 to 10000 nM |
| O=C(/C=C/CN1CCc2ccccc21)N1CCc2c(sc3ncnc(Nc4ccc(OCc5ccccn5)c(Cl)c4)c23)C1 [Example 44, N-[3-chloro-4-(pyridin-2-ylmethoxy)phenyl]-7-[(2E)-4-(2,3-dihydro-1H-indol-1-yl)but-2-enoyl]-5,6,7,8-tetrahydropyndo [4′,3′:4,5]thieno[2,3-d]pyrimidin-4-amine] | 1000 to 10000 nM | < 200 nM | 1000 to 10000 nM |
| O=C(/C=C/CN1CCC(N2CCCCC2)CC1)N1CCc2c(sc3ncnc(Nc4ccc(F)c(Cl)c4)c23)C1 [Example 45, 7-[(2E)-4-(1,4′-bipiperidin-1-yl)but-2-enoyl]-N-(3-chloro-4-fluorophenyl)-5,6,7,8-tetrahydropyrido [4′,3′:4,5]thieno[2,3-d]pyrimidin-4-amine] | 1000 to 10000 nM | < 200 nM | 200 to 1000 nM |
| CC1CCC(C)N1C/C=C/C(=O)N1CCc2c(sc3ncnc(Nc4ccc(OCc5ccccn5)c(Cl)c4)c23)C1 (stereo not drawn) [Example 48, N-[3-chloro-4-(pyridin-2-ylmethoxy)phenyl]-7-[(2E)-4-(2,5-dimethylpyrrolidin-1-yl)but-2-enoyl]-5,6,7,8-tetrahydropyrido [4′,3′:4,5]thieno[2,3-d]pyrimidin-4-amine] | 1000 to 10000 nM | < 200 nM | 1000 to 10000 nM |
| CC(O)CN(C/C=C/C(=O)N1CCc2c(sc3ncnc(Nc4ccc(OCc5ccccn5)c(Cl)c4)c23)C1)CC(C)O (stereo not drawn) [Example 52, 1,1′-({(2E)-4-[4-{[3-chloro-4-(pyridin-2-ylmethoxy)phenyl]amino}-5,8-dihydropyrido [4′,3′:4,5]thieno[2,3-d]pyrimidin-7(6H)-yl]-4-oxobut-2-en-1-yl}imino)dipropan-2-ol] | 1000 to 10000 nM | 200 to 5000 nM | 1000 to 10000 nM |

Other lines, results leading:

| IC50 (A431 cells) | IC50 (N87) | IC50 (H1975 cells) | SMILES |
| --- | --- | --- | --- |
| 1000 to 10000 nM | 200 to 5000 nM | 1000 to 10000 nM | C#Cc1cccc(Nc2ncnc3sc4c(c23)CCN(C(=O)C2=CCCN(C)C2)C4)c1 [Example 31, N-(3-ethynylphenyl)-7-[(1-methyl-1,2,5,6-tetrahydropyridin-3-yl)carbonyl]-5,6,7,8-tetrahydropyrido [4′,3′:4,5]thieno[2,3-d]pyrimidin-4-amine] |
| 1000 to 10000 nM | < 200 nM | 1000 to 10000 nM | O=C(/C=C/CN(CCO)CCO)N1CCc2c(sc3ncnc(Nc4ccc(F)c(Cl)c4)c23)C1 [Example 32, 2,2′-{[(2E)-4-{4-[(3-chloro-4-fluorophenyl)amino]-5,8-dihydropyrido [4′,3′:4,5]thieno[2,3-d]pyrimidin-7(6H)-yl}-4-oxobut-2-en-1-yl]imino}diethanol] |
| 200 to 1000 nM | < 200 nM | 200 to 1000 nM | CCN(C)C/C=C/C(=O)N1CCc2c(sc3ncnc(Nc4ccc(F)c(Cl)c4)c23)C1 [Example 40, N-(3-chloro-4-fluorophenyl)-7-{(2E)-4-[ethyl(methyl)amino]but-2-enoyl}-5,6,7,8-tetrahydropyrido [4′,3′:4,5]thieno[2,3-d]pyrimidin-4-amine] |
| 200 to 1000 nM | < 200 nM | 1000 to 10000 nM | CC1CN(C/C=C/C(=O)N2CCc3c(sc4ncnc(Nc5ccc(F)c(Cl)c5)c34)C2)CC(C)O1 (stereo not drawn) [Example 41] |
| 200 to 1000 nM | < 200 nM | 200 to 1000 nM | CC1CC(C)CN(C/C=C/C(=O)N2CCc3c(sc4ncnc(Nc5ccc(OCc6ccccn6)c(Cl)c5)c34)C2)C1 (stereo not drawn) [Example 46, N-[3-chloro-4-(pyridin-2-ylmethoxy)phenyl]-7-[(2E)-4-(3,5-dimethylpiperidin-1-yl)but-2-enoyl]-5,6,7,8-tetrahydropyrido [4′,3′:4,5]thieno[2,3-d]pyrimidin-4-amine] |
| 200 to 1000 nM | < 200 nM | 200 to 1000 nM | O=C(/C=C/CN1CCCC(CO)C1)N1CCc2c(sc3ncnc(Nc4ccc(OCc5ccccn5)c(Cl)c4)c23)C1 (stereo not drawn) [Example 47, (1-{(2E)-4-[4-{[3-chloro-4-(pyridin-2-ylmethoxy)phenyl]amino}-5,8-dihydropyrido [4′,3′:4,5]thieno[2,3-d]pyrimidin-7(6H)-yl]-4-oxobut-2-en-1-yl}piperidin-3-yl)methanol] |
| 200 to 1000 nM | < 200 nM | 200 to 1000 nM | CCN(C)C/C=C/C(=O)N1CCc2c(sc3ncnc(Nc4ccc(OCc5ccccn5)c(Cl)c4)c23)C1 [Example 49, N-(3-chloro-4-(pyridin-2-ylmethoxy)phenyl]-7-{(2E)-4-[ethyl(methyl)amino]but-2-enoyl}-5,6,7,8-tetrahydropyrido [4′,3′:4,5]thieno[2,3-d]pyrimidin-4-amine] |
| 200 to 1000 nM | < 200 nM | 1000 to 10000 nM | O=C(/C=C/Cn1ccnc1)N1CCc2c(sc3ncnc(Nc4ccc(OCc5ccccn5)c(Cl)c4)c23)C1 [Example 51, N-[3-chloro-4-(pyridin-2-ylmethoxy)phenyl]-7-[(2E)-4-(1H-imidazol-1-yl)but-2-enoyl]-5,6,7,8-tetrahydropyrido [4′,3′:4,5]thieno[2,3-d]pyrimidin-4-amine] |
